Measurements reported in US6814988B2, “Process for optimizing milk production” (Novus International, Inc., priority 1997, dated 2004).
Read-outs that look alike come from different tables or passages of the source. Values belong to the compound of their own block, whether it stands above or below them.

Legend:
[1] = Rumen bypass and gastrointestinal availability of HMB in rumen- and duodenum-cannulated lactating dairy cows (Example 1); conditions: for Chromium Concentration: 3 g Cr into rumen
Experimental: (§1) The absorption and metabolism of 2-hydroxy-4-[methylthio]butanoic acid sold by Novus International (St. Louis, Mo. under the Alimet® was measured in four lactating dairy cows fitted with rumen and duodenal T-type cannulae (10 cm distal to the pylorus). The cows were offered a basal diet of barley-based concentrate (Table I) and alfalfa hay. The concentrate was fed at a level of 1 kg for every 2.5 kg of milk produced (Table I) and access to alfalfa hay was ad libitum. In addition, cows received 30 g HMB mixed with 2 kg ground corn grain per day for six days to allow for adaptation of the rumen microflora. Cows were then fed 90 g HMB mixed with the ground corn and were administered 600 ml chromium-EDTA (3 g Cr) (Binnerts et al., “Soluble chromium indicator measured by atomic absorption in digestion experiments” Vet. Rec. (1968) page 470) into the rumen via the rumen cannula. The HMB meal was offered to the cows for 20 minutes prior to the morning feeding and any of the remaining meal was placed in the rumen via the rumen cannula.
(§2) Blood, rumen and duodenal samples were collected at 0, 1, 3, 6, 9, 12 and 24 hours post-HMB-feeding. Blood was collected by jugular veni-puncture into 2×10 ml sterile tubes (Vacutainer Brand SST tubes for serum separation, Bectin Dickenson, Rutherford, N.J.), allowed to stand for 30 minutes in an ice bath and centrifuged at 3000×g to separate the serum from cells. Serum was divided into two fractions. The first fraction was deproteinized by adding an equal volume of acetonitrile and then centrifuging to obtain the supernatant. The deproteinized serum was then frozen (−70° C.) until analysis. A second fraction was not deproteinized but directly frozen (−70° C.). Rumen fluid (100 ml) collected from several sites within the rumen was strained through four layers of cheesecloth and subsampled. The subsample (30 ml) was acidified with 6 M HCl (0.5 ml) and frozen (−40° C.). Duodenal samples collected (100 ml) were also stored frozen (−40° C.). Rumen and duodenal samples were later thawed and centrifuged at 23 000×g, 4° C., for 20 minutes to obtain the clarified supernatant. The clarified rumen and the duodenal samples were then frozen until analysis. Serum was analyzed for methionine and rumen and duodenal samples for HMB. Chromium was measured by atomic absorption spectrophotometry in rumen and duodenal samples that were diluted with an equal volume of a calcium chloride solution to yield samples with approximately 400 ppm Ca^2+ (Williams et al., “The determination of chromic oxide in faeces samples by atomic absorption spectrophotometry” J. Agric. Sci., Vol. 59 (1962) pp. 381-385).
(§3) The slope of the line from the semilogarithmic plot is equal to the fractional rate constant (K). The rate constants were calculated by linear regression of the natural logarithm of Cr and HMB concentration verses time (Table III). Regression analysis of rumen Cr concentration was performed with data for 1 to 24 hours (excluding data for 0 hour).
(§4) Regression analysis for duodenal Cr and HMB concentration included the data for 3 to 24 hours and 3 to 12 hours, respectively. Excluding the data for 1 hour simplified the analysis by omitting the delay for the translocation of digesta from the rumen to the duodenum.

[2] = Lactation study, Alimet in close-up dry period and early lactation diets (Example 2); assay type: in vivo, cows
Experimental: The diets (Table IV) were formulated to include Alimet® to meet the methionine requirements as determined using existing computer modeling technology (CNCPS and DAIRYLP). The diets were balanced to meet amino acid requirements and included standard feed ingredients used in dairy rations. In the absence of added Alimet®, the control diet was predicted to be first limiting in methionine. The estimated need for methionine was approximately 9 grams per day. Alimet® was added assuming an availability to the ruminant of 20%.
This study included 10 multiparous and five primiparous cows per treatment, supplemented with Alimet® for two weeks before calving and for 12 weeks of lactation. […] At peak milk yield, Alimet-fed multiparous cows produced 7.9 kg/d more FCM than unsupplemented cows (42.0 vs 34.1 kg/d). The benefits of supplying post ruminal amino acid would appear to be greatest during the close-up dry period and early lactation.

[3] = female, cow, in vivo
Experimental: as §1, §2, §3, §4

in vivo = conditions: female, cow
Experimental: as §1, §2, §3, §4

[4] = Amount of methionine hydroxy analog bypassing the rumen and available for absorption, summary of experimental evidence; assay type: in vivo, ruminant
From the text: Everything considered, therefore, the amount of the hydroxy analog of methionine which bypasses the rumen and is available for absorption is between about 40% and about 55%.

[5] = duodenal fluid, 3 to 24 hours, cow 124
[6] = duodenal fluid, 3 to 24 hours, cow 131
[7] = duodenal fluid, 3 to 24 hours, cow 133
[8] = duodenal fluid, 3 to 24 hours, cow 138
[9] = duodenal fluid, 3 to 24 hours, mean of four cows
[10] = rumen fluid, 1 to 24 hours, cow 24
[11] = rumen fluid, 1 to 24 hours, cow 131
[12] = rumen fluid, 1 to 24 hours, cow 133
[13] = rumen fluid, 1 to 24 hours, cow 138
[14] = rumen fluid, 1 to 24 hours, mean of four cows

Chromium Concentration ([1]; duodenal fluid, 0 h, cow 124): 1.36 µg/mL
Chromium Concentration ([1]; duodenal fluid, 0 h, cow 131): 0.05 µg/mL
Chromium Concentration ([1]; duodenal fluid, 0 h, cow 133): 0.05 µg/mL
Chromium Concentration ([1]; duodenal fluid, 0 h, cow 138): 0.02 µg/mL
Constant, linear regression of natural logarithm of Cr concentration versus time [1, 5]: 3.0038
K (fractional rate constant), Chromium [1, 5]: −.0705
Constant, linear regression of natural logarithm of Cr concentration versus time [1, 6]: 3.5284
K (fractional rate constant), Chromium [1, 6]: −.1201
Constant, linear regression of natural logarithm of Cr concentration versus time [1, 7]: 3.6342
K (fractional rate constant), Chromium [1, 7]: −.1173
Constant, linear regression of natural logarithm of Cr concentration versus time [1, 8]: 3.7419
K (fractional rate constant), Chromium [1, 8]: −.1135
Constant, linear regression of natural logarithm of Cr concentration versus time [1, 9]: 3.4771
K (fractional rate constant), Chromium; rate constant for passage of the Cr marker to the duodenum [1, 9]: −.1053
K (fractional rate constant), Chromium; rate constant for passage of the Cr marker to the duodenum ([1]; duodenal fluid, 3 to 24 hours, mean of four cows, listed as Cr): −0.1053
Chromium Concentration ([1]; duodenal fluid, 1 h, cow 124): 11.69 µg/mL
Chromium Concentration ([1]; duodenal fluid, 1 h, cow 131): 23.80 µg/mL
Chromium Concentration ([1]; duodenal fluid, 1 h, cow 133): 12.14 µg/mL
Chromium Concentration ([1]; duodenal fluid, 1 h, cow 138): 17.98 µg/mL
Chromium Concentration ([1]; duodenal fluid, 3 h, cow 124): 18.30 µg/mL
Chromium Concentration ([1]; duodenal fluid, 3 h, cow 131): 24.55 µg/mL
Chromium Concentration ([1]; duodenal fluid, 3 h, cow 133): 25.41 µg/mL
Chromium Concentration ([1]; duodenal fluid, 3 h, cow 138): 27.23 µg/mL
Chromium Concentration ([1]; duodenal fluid, 6 h, cow 124): 11.99 µg/mL
Chromium Concentration ([1]; duodenal fluid, 6 h, cow 131): 17.86 µg/mL
Chromium Concentration ([1]; duodenal fluid, 6 h, cow 133): 18.42 µg/mL
Chromium Concentration ([1]; duodenal fluid, 6 h, cow 138): 23.24 µg/mL
Chromium Concentration ([1]; duodenal fluid, 9 h, cow 124): 11.00 µg/mL
Chromium Concentration ([1]; duodenal fluid, 9 h, cow 131): 12.16 µg/mL
Chromium Concentration ([1]; duodenal fluid, 9 h, cow 133): 16.36 µg/mL
Chromium Concentration ([1]; duodenal fluid, 9 h, cow 138): 19.26 µg/mL
Chromium Concentration ([1]; duodenal fluid, 12 h, cow 124): 7.89 µg/mL
Chromium Concentration ([1]; duodenal fluid, 12 h, cow 131): 6.39 µg/mL
Chromium Concentration ([1]; duodenal fluid, 12 h, cow 133): 7.89 µg/mL
Chromium Concentration ([1]; duodenal fluid, 12 h, cow 138): 8.39 µg/mL
Chromium Concentration ([1]; duodenal fluid, 24 h, cow 124): 3.88 µg/mL
Chromium Concentration ([1]; duodenal fluid, 24 h, cow 131): 2.06 µg/mL
Chromium Concentration ([1]; duodenal fluid, 24 h, cow 133): 2.29 µg/mL
Chromium Concentration ([1]; duodenal fluid, 24 h, cow 138): 2.85 µg/mL
Chromium Concentration ([1]; rumen fluid, 0 h, cow 124): 0.04 µg/mL
Chromium Concentration ([1]; rumen fluid, 0 h, cow 131): 0.07 µg/mL
Chromium Concentration ([1]; rumen fluid, 0 h, cow 133): 0.01 µg/mL
Chromium Concentration ([1]; rumen fluid, 0 h, cow 138): 0.02 µg/mL
Constant, linear regression of natural logarithm of Cr concentration versus time [1, 10]: 3.4702
K (fractional rate constant), Chromium [1, 10]: −.0940
Constant, linear regression of natural logarithm of Cr concentration versus time [1, 11]: 2.7330
K (fractional rate constant), Chromium [1, 11]: −.1576
Constant, linear regression of natural logarithm of Cr concentration versus time [1, 12]: 3.7310
K (fractional rate constant), Chromium [1, 12]: −.1302
Constant, linear regression of natural logarithm of Cr concentration versus time [1, 13]: 3.9905
K (fractional rate constant), Chromium [1, 13]: −.1411
Constant, linear regression of natural logarithm of Cr concentration versus time [1, 14]: 3.7312
K (fractional rate constant), Chromium; rate of passage of the liquid marker from the rumen [1, 14]: −.1307
K (fractional rate constant), Chromium; rate of passage of the liquid marker from the rumen ([1]; rumen fluid, 1 to 24 hours, mean of four cows, listed as Cr): −0.1307
Chromium Concentration ([1]; rumen fluid, 1 h, cow 124): 31.83 µg/mL
Chromium Concentration ([1]; rumen fluid, 1 h, cow 131): 36.27 µg/mL
Chromium Concentration ([1]; rumen fluid, 1 h, cow 133): 40.44 µg/mL
Chromium Concentration ([1]; rumen fluid, 1 h, cow 138): 45.51 µg/mL
Chromium Concentration ([1]; rumen fluid, 3 h, cow 124): 23.77 µg/mL
Chromium Concentration ([1]; rumen fluid, 3 h, cow 131): 29.11 µg/mL
Chromium Concentration ([1]; rumen fluid, 3 h, cow 133): 34.52 µg/mL
Chromium Concentration ([1]; rumen fluid, 3 h, cow 138): 37.05 µg/mL
Chromium Concentration ([1]; rumen fluid, 6 h, cow 124): 19.29 µg/mL
Chromium Concentration ([1]; rumen fluid, 6 h, cow 131): 18.09 µg/mL
Chromium Concentration ([1]; rumen fluid, 6 h, cow 133): 16.62 µg/mL
Chromium Concentration ([1]; rumen fluid, 6 h, cow 138): 27.94 µg/mL
Chromium Concentration ([1]; rumen fluid, 9 h, cow 124): 12.93 µg/mL
Chromium Concentration ([1]; rumen fluid, 9 h, cow 131): 8.89 µg/mL
Chromium Concentration ([1]; rumen fluid, 9 h, cow 133): 10.79 µg/mL
Chromium Concentration ([1]; rumen fluid, 9 h, cow 138): 13.89 µg/mL
Chromium Concentration ([1]; rumen fluid, 12 h, cow 124): 9.16 µg/mL
Chromium Concentration ([1]; rumen fluid, 12 h, cow 131): 5.04 µg/mL
Chromium Concentration ([1]; rumen fluid, 12 h, cow 133): 7.86 µg/mL
Chromium Concentration ([1]; rumen fluid, 12 h, cow 138): 8.28 µg/mL
Chromium Concentration ([1]; rumen fluid, 24 h, cow 124): 3.62 µg/mL
Chromium Concentration ([1]; rumen fluid, 24 h, cow 131): 1.07 µg/mL
Chromium Concentration ([1]; rumen fluid, 24 h, cow 133): 2.08 µg/mL
Chromium Concentration ([1]; rumen fluid, 24 h, cow 138): 1.97 µg/mL
Compound: chromium-EDTA

percent of the HMB dose absorbed in the omasum [3]: 8.8%
percent of the HMB dose bypassing the rumen fermentation [3]: 40%
percent of the HMB dose that disappeared (was degraded) in the rumen [3]: 60%
percent of the HMB that passed to the small intestine [3]: 31.2%
rate constant for microbial degradation of HMB within the rumen [3]: −0.1962
time by which rumen and duodenal HMB and serum methionine had returned to pre-dose levels [3]: ≤ 12 h
time of peak duodenal HMB concentration [3]: 3 h
time of peak ruminal HMB concentration [3]: 1 h
time of peak serum methionine concentration [3]: 6 h
HMB Concentration ([3]; 0 h): <10 µg/mL
increase in serum methionine above pre-dose levels at the peak concentration ([3]; 6 h): 200%
HMB Concentration ([3]; 24 h): <10 µg/mL
bioavailability (in vivo): 40%
concentration at 0 h (in vivo; HMB Concentration): < 10000 ng/mL
concentration at 24 h (in vivo; HMB Concentration): < 10000 ng/mL
concentration at 24 h (in vivo; rumen concentration of HMB): < 10000 ng/mL
amount absorbed by the omasum ([4]; additional experimental evidence): about 8.8%
amount which by-passes the rumen ([4]; experimental bypass data and field work with dairy cattle (milk response), molecular basis): at least 40%
amount which bypasses the rumen and is available for absorption ([4]; fed in the absence of a bypass fat, molecular basis, experimental evidence to date): at least 20%
Compound: CSCCC(O)C(=O)O (stereo not drawn) [HMB, DL, 2-hydroxy-4-[methylthio]butanoic acid]
more FCM than unsupplemented cows ([2]; multiparous cows at peak milk yield): 7.9 kg/day
FCM production ([2]; multiparous cows at peak milk yield, unsupplemented 34.1): 42.0 kg/day
milk protein content, higher than unsupplemented cows ([2]; supplemented two weeks before calving and 12 weeks of lactation): not
milk fat content ([2]; supplemented two weeks before calving and 12 weeks of lactation, unsupplemented 3.71%): 4.01%
fat-corrected content (FCM) production ([2]; supplemented two weeks before calving and 12 weeks of lactation, unsupplemented 29.2): 33.4 kg/day
milk production ([2]; supplemented two weeks before calving and 12 weeks of lactation, unsupplemented 31.3): 33.9 kg/day
